In BindingDB's records for doi:10.1016/j.chembiol.2013.08.005 (University of California San Francisco, 2013) one finds IC50 data, which are given here for 18 compounds.

In one assay the target is T1, Urea transporter 1 (Rattus norvegicus, UniProt P97689).
T1 sequence (P97689 whole entry): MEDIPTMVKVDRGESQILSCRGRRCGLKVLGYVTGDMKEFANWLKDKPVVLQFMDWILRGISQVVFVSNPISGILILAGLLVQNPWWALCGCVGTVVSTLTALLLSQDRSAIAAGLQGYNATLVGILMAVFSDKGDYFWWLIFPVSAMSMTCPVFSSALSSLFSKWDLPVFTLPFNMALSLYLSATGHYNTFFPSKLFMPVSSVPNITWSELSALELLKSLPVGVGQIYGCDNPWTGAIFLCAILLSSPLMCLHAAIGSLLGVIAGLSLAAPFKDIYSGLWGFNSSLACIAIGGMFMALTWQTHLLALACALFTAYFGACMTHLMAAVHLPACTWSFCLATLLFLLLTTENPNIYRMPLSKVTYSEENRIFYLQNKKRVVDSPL
Nature of the assay: UT-B Inhibition Assay. The procedure: Erythrocyte suspension (100 µL) was added to each well of a 96-well microplate to which test compounds were added. After 15 min incubation, 20 µL of the erythrocyte suspension was added to each well of a 96-well plate containing 180 µL PBS containing 1% DMSO, followed by vigorous mixing. The absorbance was measured at 710 nm.

For another assay, the target named is T2, Urea transporter 2 (Rattus norvegicus, UniProt Q62668).
T2 sequence (Q62668 whole entry): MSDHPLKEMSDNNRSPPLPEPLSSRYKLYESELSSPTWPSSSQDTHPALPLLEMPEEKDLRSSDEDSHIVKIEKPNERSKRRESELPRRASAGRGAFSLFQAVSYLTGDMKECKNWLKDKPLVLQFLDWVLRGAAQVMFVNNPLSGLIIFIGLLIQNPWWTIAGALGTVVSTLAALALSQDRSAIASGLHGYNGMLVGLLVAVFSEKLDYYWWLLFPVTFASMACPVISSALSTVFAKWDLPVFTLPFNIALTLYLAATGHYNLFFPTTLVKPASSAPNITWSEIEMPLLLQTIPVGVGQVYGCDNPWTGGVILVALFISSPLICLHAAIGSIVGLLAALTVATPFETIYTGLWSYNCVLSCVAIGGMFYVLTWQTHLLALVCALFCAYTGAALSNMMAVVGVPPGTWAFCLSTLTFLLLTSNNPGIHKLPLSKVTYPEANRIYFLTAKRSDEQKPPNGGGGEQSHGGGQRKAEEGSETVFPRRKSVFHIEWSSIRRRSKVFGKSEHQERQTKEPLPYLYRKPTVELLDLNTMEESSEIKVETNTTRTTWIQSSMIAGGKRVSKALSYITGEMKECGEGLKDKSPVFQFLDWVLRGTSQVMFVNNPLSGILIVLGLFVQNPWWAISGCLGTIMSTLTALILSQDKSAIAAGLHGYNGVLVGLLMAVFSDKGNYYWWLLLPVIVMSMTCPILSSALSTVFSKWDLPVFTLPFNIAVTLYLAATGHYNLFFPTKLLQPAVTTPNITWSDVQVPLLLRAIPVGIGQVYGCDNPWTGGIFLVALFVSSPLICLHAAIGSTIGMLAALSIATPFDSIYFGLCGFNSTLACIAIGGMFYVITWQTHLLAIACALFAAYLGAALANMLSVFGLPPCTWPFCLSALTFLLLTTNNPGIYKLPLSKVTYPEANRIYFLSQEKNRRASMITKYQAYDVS
Nature of the assay: UT-A1 Inhibition Assay. The procedure: The urea concentration dependence of UT-A1 inhibition was studied from inhibitor concentration response data (0.3 - 60 µM) using different of urea gradients (200 - 1,600 mM). The kinetics of UT-A1 inhibition was measured by adding inhibitors (3 µM) at different times prior to assay.

Usually IC50 stands for the concentration at which inhibition is half-maximal. Read a high IC50 as lower potency.

Each structure is given as a SMILES string.

Consider `Cc1ccc(C)c(S(=O)(=O)c2nnn3c2nc(NC(C)C)c2sccc23)c1`, for which the IC50 was 15 µM against Urea transporter 1 and 3.8 µM on Urea transporter 2.

As for `CCc1ccc(S(=O)(=O)c2nnn3c2nc(NCCCOC)c2sccc23)cc1`, the IC50 against Urea transporter 1 was 28 µM; against Urea transporter 2, above 50 µM.

Take `CSc1nc(Nc2ccc(Nc3ccccc3)cc2)nc(SC)n1` [1‐N‐[bis(methylsulfanyl)‐1,3,5‐triazin‐2‐yl]‐4‐N‐ phenylbenzene‐1,4‐diamine]: the half-maximal inhibitory concentration (IC50) was above 50 µM against Urea transporter 1 and 45 µM against Urea transporter 2.

Take `CC(=O)OCCOc1ccccc1/C=C1/SC(=N)NC1=O` [2‐(2‐{[(5E)‐2‐imino‐4‐oxo‐1,3‐thiazolidin‐5‐ ylidene]methyl}phenoxy)ethyl acetate]: the half-maximal inhibitory concentration (IC50) against Urea transporter 1 was determined as 4.8 µM; at Urea transporter 2, 3.7 µM.

Consider `COc1cccc(Nc2nc(Nc3ccc(C)cc3)nc(Sc3ccc(C)cc3)n2)c1` [2‐N‐(3‐methoxyphenyl)‐4‐N‐(4‐methylphenyl)‐6‐[(4‐ methylphenyl)sulfanyl]‐1,3,5‐triazine‐2,4‐diamine], for which the IC50 on Urea transporter 1 was 42 µM; against Urea transporter 2 it was above 50 µM.

`COc1cccc(CNC(=O)c2ccc3cccc(O)c3n2)c1` [8‐hydroxy‐N‐[(3‐methoxyphenyl)methyl]quinoline‐2‐carboxamide] registered an IC50 against Urea transporter 1 above 50 µM.

For `COc1ccc(Nc2cc(C(=O)N3CCSCC3)nc3c(OC)cccc23)cc1` [8‐methoxy‐N‐(4‐methoxyphenyl)‐2‐(thiomorpholine‐4‐ carbonyl)quinolin‐4‐amine], the figures for the 50% inhibitory concentration (IC50) on Urea transporter 1 and on Urea transporter 2 were 6.2 µM and 3.5 µM, respectively.

Regarding `COc1cccc2c(Nc3cccc(SC)c3)cc(C(=O)N3CCCCC3)nc12` [8‐methoxy‐N‐[3‐(methylsulfanyl)phenyl]‐2‐ (piperidine‐1‐carbonyl)quinolin‐4‐amine], the 50% inhibitory concentration (IC50) against Urea transporter 1 was found to be 20 µM; on Urea transporter 2, 3.8 µM.

`O=S(=O)(c1ccc(Br)cc1)c1nnn2c1nc(N=S1C=CC=C1)c1sccc12` [10‐(4‐bromobenzenesulfonyl)‐N‐[(1Z)‐1λ⁴‐thiophen‐1‐ ylidene]‐5‐thia‐1,8,11,12‐ tetraazatricyclo[7.3.0.0 ,⁶]dodeca‐2(6),3,7,9,11‐ pentaen‐7‐amine]: the IC50 against Urea transporter 1 was 2.8 µM; against Urea transporter 2, above 50 µM.

Regarding `[H]/N=C1/NC(=O)/C(=C\c2cccc(OC)c2OC)S1` [(5E)‐5‐[(2,3‐dimethoxyphenyl)methylidene]‐2‐imino‐1,3‐thiazolidin‐4‐one], the IC50 was 43 µM against Urea transporter 1 and 7 µM against Urea transporter 2.

For `COc1cccc(/C=C2/SC(=N)NC2=O)c1O` [(5E)‐5‐[(2‐hydroxy‐3‐methoxyphenyl)methylidene]‐2‐ imino‐1,3‐thiazolidin‐4‐one], the IC50 was found to be 6.3 µM against Urea transporter 1 and 4.6 µM against Urea transporter 2.

Take `COc1cc(/C=C2/SC(=N)NC2=O)ccc1O` [(5E)‐5‐[(4‐hydroxy‐3‐methoxyphenyl)methylidene]‐2‐ imino‐1,3‐thiazolidin‐4‐one]: the IC50 on Urea transporter 1 is 6.2 µM; at Urea transporter 2 it was 25 µM.

As to `COc1ccc(Nc2cc(C(=O)N3CCSCC3)nc3c(OC)cccc23)cc1Cl` [N‐(3‐chloro‐4‐methoxyphenyl)‐8‐methoxy‐2‐ (thiomorpholine‐4‐carbonyl)quinolin‐4‐amine], the IC50 against Urea transporter 1 was determined as 27 µM; against Urea transporter 2, 19 µM.

In the case of `COc1cccc2c(Nc3ccc(C)c(Cl)c3)cc(C(=O)N3CCCCC3)nc12` [N‐(3‐chloro‐4‐methylphenyl)‐8‐methoxy‐2‐ (piperidine‐1‐carbonyl)quinolin‐4‐amine], the IC50 was above 50 µM on Urea transporter 1 and 24 µM at Urea transporter 2.

`COc1cccc2c(Nc3ccc(C)c(F)c3)cc(C(=O)N3CCCCC3)nc12` [N‐(3‐fluoro‐4‐methylphenyl)‐8‐methoxy‐2‐ (piperidine‐1‐carbonyl)quinolin‐4‐amine]: the half-maximal inhibitory concentration (IC50) against Urea transporter 1 was above 50 µM; against Urea transporter 2, 25 µM.

For `CCOc1ccc(Nc2cc(C(=O)N3CCCCC3)nc3c(OC)cccc23)cc1` [N‐(4‐ethoxyphenyl)‐8‐methoxy‐2‐(piperidine‐1‐ carbonyl)quinolin‐4‐amine], the IC50 was 16 µM at Urea transporter 1 and 3.3 µM against Urea transporter 2.

For `CCOc1ccc(Nc2cc(C(=O)N3CCSCC3)nc3c(OC)cccc23)cc1` [N‐(4‐ethoxyphenyl)‐8‐methoxy‐2‐(thiomorpholine‐4‐ carbonyl)quinolin‐4‐amine], the IC50 turned out to be 34 µM at Urea transporter 1 and 24 µM against Urea transporter 2.

As to `CNc1nc2c(S(=O)(=O)c3ccccc3)nnn2c2ccsc12` [UT-A1 inhibitor D2], the IC50 was 35 µM at Urea transporter 1 and above 50 µM against Urea transporter 2.
